Results as given in BigSolDB 2.1.

Cc1nc(-c2ccc(OCC(C)C)c(C#N)c2)sc1C(=O)O
solubility (mole fraction)
Conditions | 293.15 K | 298.15 K | 303.15 K | 308.15 K | 313.15 K | 318.15 K | 323.15 K | 328.15 K
in acetone | 0.00623 | 0.00743 | 0.00921 | 0.0107 | 0.0129 | 0.0147 | 0.0162 | 0.0171
in ethanol | 0.00122 | 0.00177 | 0.00269 | 0.00401 | 0.00584 | 0.00836 | 0.0109 | 0.0143
in ethyl acetate | 0.00376 | 0.00456 | 0.00516 | 0.00643 | 0.00732 | 0.00828 | 0.00975 | 0.0114
in methanol | 0.000524 | 0.000856 | 0.00117 | 0.00162 | 0.00229 | 0.00325 | 0.0045 | 0.00685
